Assay results from patent US4200638A, “Indole derivatives and therapeutically acting drugs” (Omnium Chimique Societe Anonyme, priority 1977, dated 1980).

Tests used:
[1] = Acute toxicity (LD50, method of Lichtfield and Wilcoxon); conditions: mouse, in vivo, mice
Description: The compounds of the invention were administered by intragastric or by intravenous route to Charles River stock mice. The lethal doses for 50% (LD50) were determined graphically according to the method of Lichtfield and Wilcoxon (J.Pharmacol.Exp. Therap. […], 96, 99).

vertebral flow rate = test: Vertebral flow rate in anesthetized dogs; type: in vivo; conditions: 5.5 mg/kg i.v.
Description: (§1) In addition, a substantial increase of vertebral flow rate was noticed upon dogs previously anesthetized with sodium pentobarbital (30 mg/kg i.v.). More particularly a does of 5.5 mg/kg i.v. of N-ethylchanodesethylapovincamine causes a 50 to 100% increase of vertebral flow rate. Said effect on the flow rate is selective, the increase of femoral flow rate being negligible.

femoral flow rate = test: Femoral flow rate in anesthetized dogs; type: in vivo; conditions: 5.5 mg/kg i.v.; dogs anesthetized with sodium pentobarbital (30 mg/kg i.v.)
Description: as §1

Charles River stock mice = test: Hypobaric anoxia test on mice (survival time); type: in vivo
Description: Charles River stock mice of the same sex, weighting about 20±2 g are shared into three lots of 10 animals each. The lots 1 and 2 comprise treated animals, i.e. those having received either a substance to be tested. The third lot comprises control animals.
The compounds examined are administered p.o. 30 minutes before the experiment.
The animals are placed in an atmosphere improverished in oxygen by creating a partial vacuum (190 mm Hg, corresponding to 5.25% oxygen), in about 30 seconds.
The survival time of the mice is measured with a chronometer. Said time is increased by the agents capable of enhancing oxygenation of tissues and more particularly brain oxygenation.
Under the above described conditions, the dose which provides a 50% increase of the average survival time of the animals may be expressed as the 50% effective dose (here abbreviated as ED50).

CCN1CCc2c3n(c4ccccc24)C(C(=O)OC)=CCC31 (stereo not drawn) [N-ethylchanodesethylapovincamine]
LD50 ([1]; iv): 55 mg/kg
LD50 ([1]; po, p.o. (intragastric)): 1120 mg/kg
effect on the flow rate (vertebral versus femoral) (vertebral flow rate): selective
increase of femoral flow rate (femoral flow rate): negligible
ED50 (Charles River stock mice; Mus musculus, po, p.o. 30 minutes before the experiment, 190 mm Hg, corresponding to 5.25% oxygen, read-out: ED50 (dose which provides a 50% increase of the average survival time)): 225 mg/kg
LD50/ED50 (Charles River stock mice; p.o.): 5
